Here are results for 24 molecules from patent publication US7358248B2, “Substituted amino carboxylic acids” (The Institute for Pharmaceutical Discovery LLC, priority 2003, dated 2008).

What is called melting point is the temperature, or range, at which the solid turns liquid.

Structures are written as SMILES.

`CC(C)(C)OC(=O)N[C@@H](CSCc1ccc(-c2ccc(-c3ccc4c(c3)OCO4)cc2)cc1)C(=O)O` (stereo in doubt) [Example 101, 3-(4′-Benzo[1,3]dioxol-5-yl-biphenyl-4-ylmethylsulfanyl)-2-tert-butoxycarbonylamino-propionic acid] gave a melting point of 178 to 180 °C.

Molecule `CC(C)(C)OC(=O)N[C@@H](C[S+]([O-])Cc1ccc(-c2ccc(-n3ccc4ccccc43)cc2)cc1)C(=O)O` (stereo partly drawn) [Example 7, (2R)-tert-Butoxycarbonylamino-3-(4′-indol-1-ylbiphen-4-ylmethylsulfinyl)-propionic acid] displayed a melting point of 169 to 170 °C.

Take `O=C(Cc1cccc([N+](=O)[O-])c1)N[C@@H](CSCc1ccc(-c2ccc(-n3ccc4ccccc43)cc2)cc1)C(=O)O` [Example 10, (2R)-3-(4′-Indol-1-ylbiphen-4-ylmethylsulfanyl)-2-[2-(3-nitrophenyl)acetylamino]-propionic acid]: the melting point was found to be 94 °C.

`COC(=O)N[C@@H](CSCc1ccc(-c2ccc(-n3ccc4ccccc43)cc2)cc1)C(=O)O` [Example 12, (2R)-3-(4′-Indol-1-ylbiphen-4-ylmethylsulfanyl)-2-methoxycarbonylamino-propionic acid] yielded a melting point of 81 to 82 °C.

Molecule `CC(C)COC(=O)N[C@@H](CSCc1ccc(-c2ccc(-n3ccc4ccccc43)cc2)cc1)C(=O)O` [Example 13, (2R)-3-(4′-Indol-1-ylbiphen-4-ylmethylsulfanyl)-2-isobutoxycarbonylamino-propionic acid] yielded a melting point of 85 to 86 °C.

For `O=C(O)[C@H](CSCc1ccc(-c2ccc(-n3ccc4ccccc43)cc2)cc1)NC(=O)N1CCOCC1` [Example 14, (2R)-3-(4′-Indol-1-ylbiphen-4-ylmethylsulfanyl)-2-[(morpholine-4-carbonyl)-amino]-propionic acid], the melting point was 195 °C (dec.).

Consider `O=C(Cc1cccc([N+](=O)[O-])c1)N[C@@H](C[S+]([O-])Cc1ccc(-c2ccc(-n3ccc4ccccc43)cc2)cc1)C(=O)O` (stereo partly drawn) [Example 17, (2R)-3-(4′-Indol-1-ylbiphen-4-ylmethylsulfinyl)-2-[2-(3-nitrophenyl)acetylamino]-propionic acid], for which the melting point lay within 197 to 198 °C.

Take `CC(C)(C)OC(=O)N[C@@H](CSCc1ccc(-c2ccc(-c3c(Cc4ccccc4)oc4ccccc34)cc2)cc1)C(=O)O` [Example 66, (2R)-3-[4′-(2-benzylbenzofuran-3-yl)biphen-4-ylmethylsulfanyl]-2-tert-butoxy-carbonylamino-propionic acid]: the melting point is 89 to 90 °C.

`CC(C)(C)OC(=O)N[C@@H](C[S+]([O-])Cc1ccc(-c2ccc(-c3c(Cc4ccccc4)oc4ccccc34)cc2)cc1)C(=O)O` (stereo partly drawn) [Example 67, (2R,4RS)-3-[4′-(2-benzylbenzofuran-3-yl)biphen-4-ylmethylsulfinyl]-2-tert-butoxycarbonylaminopropionic acid] gave a melting point of 195 to 196 °C.

The molecule `CC(C)(C)OC(=O)N[C@@H](CS(=O)(=O)Cc1ccc(-c2ccc(-c3c(Cc4ccccc4)oc4ccccc34)cc2)cc1)C(=O)O` [Example 68, (2R)-3-[4′-(2-benzylbenzofuran-3-yl)biphen-4-ylmethylsulfonyl]-2-tert-butoxycarbonylaminopropionic acid] yielded a melting point of 202 to 203 °C.

Turning to `O=C(N[C@@H](CSCc1ccc(-c2ccc(-c3c(Cc4ccccc4)oc4ccccc34)cc2)cc1)C(=O)O)c1ccccc1` [Example 70, (2R)-2-Benzoylamino-3-[4′-(2-benzylbenzofuran-3-yl)biphen-4-ylmethylsulfanyl]-propionic acid], the melting point fell in the range of 138 to 139 °C.

`O=C(Cc1ccccc1)N[C@@H](CSCc1ccc(-c2ccc(-c3c(Cc4ccccc4)oc4ccccc34)cc2)cc1)C(=O)O` [Example 71, (2R)-2-Phenylacetylamino-3-[4′-(2-benzylbenzofuran-3-yl)biphen-4-ylmethyl-sulfanyl]-propionic acid] returned a melting point of 77 to 78 °C.

In turn, `O=C(N[C@@H](CSCc1ccc(-c2ccc(-c3c(Cc4ccccc4)oc4ccccc34)cc2)cc1)C(=O)O)c1ccc2nc[nH]c2c1` [Example 73] came in with a melting point of 149 to 150 °C.

The molecule `O=C(Cc1ccc(F)cc1)N[C@@H](CSCc1ccc(-c2ccc(-c3c(Cc4ccccc4)oc4ccccc34)cc2)cc1)C(=O)O` [Example 74, (2R)-2-(4-Fluorophenylacetylamino)-3-[4′-(2-benzylbenzofuran-3-yl)biphen-4-ylmethylsulfanyl]-propionic acid] had a melting point of 82 to 84 °C.

With `O=C(Cc1cccc([N+](=O)[O-])c1)N[C@@H](CSCc1ccc(-c2ccc(-c3c(Cc4ccccc4)oc4ccccc34)cc2)cc1)C(=O)O` [Example 75, (2R)-2-(3-Nitrophenylacetylamino)-3-[4′-(2-benzylbenzofuran-3-yl)biphen-4-ylmethylsulfanyl]-propionic acid], the melting point is 108 to 109 °C.

In the case of `O=C(Cc1ccc([N+](=O)[O-])cc1)N[C@@H](CSCc1ccc(-c2ccc(-c3c(Cc4ccccc4)oc4ccccc34)cc2)cc1)C(=O)O` [Example 77, (2R)-2-(4-Nitrophenylacetylamino)-3-[4′-(2-benzylbenzofuran-3-yl)biphen-4-ylmethylsulfanyl]-propionic acid], the melting point fell in the range of 102 to 103 °C.

`O=C(Cc1ccccc1[N+](=O)[O-])N[C@@H](CSCc1ccc(-c2ccc(-c3c(Cc4ccccc4)oc4ccccc34)cc2)cc1)C(=O)O` [Example 78, (2R)-2-(2-Nitrophenylacetylamino)-3-[4′-(2-benzylbenzofuran-3-yl)biphen-4-ylmethylsulfanyl]-propionic acid] displayed a melting point of 189 to 191 °C.

In the case of `O=C(Cc1ccc(O)cc1)N[C@@H](CSCc1ccc(-c2ccc(-c3c(Cc4ccccc4)oc4ccccc34)cc2)cc1)C(=O)O` [Example 79, (2R)-2-(4-Hydroxyphenylacetylamino)-3-[4′-(2-benzylbenzofuran-3-yl)biphen-4-ylmethylsulfanyl]-propionic acid], the melting point fell in the range of 148 to 149 °C.

As for `CC(=O)N[C@@H](CSCc1ccc(-c2ccc(-c3c(Cc4ccccc4)oc4ccccc34)cc2)cc1)C(=O)O` [Example 80, (2R)-2-Acetylamino-3-[4′-(2-benzylbenzofuran-3-yl)biphen-4-ylmethylsulfanyl]-propionic acid], the melting point fell in the range of 131 to 132 °C.

The molecule `COc1ccc(CC(=O)N[C@@H](CSCc2ccc(-c3ccc(-c4c(Cc5ccccc5)oc5ccccc45)cc3)cc2)C(=O)O)cc1` [Example 81, (2R)-2-(4-Methoxyphenylacetylamino)-3-[4′-(2-benzylbenzofuran-3-yl)biphen-4-ylmethylsulfanyl]-propionic acid] displayed a melting point of 59 to 60 °C.

`Nc1ccc(CC(=O)N[C@@H](CSCc2ccc(-c3ccc(-c4c(Cc5ccccc5)oc5ccccc45)cc3)cc2)C(=O)O)cc1` [Example 82, (2R)-2-(4-Aminophenylacetylamino)-3-[4′-(2-benzylbenzofuran-3-yl)biphen-4-ylmethylsulfanyl]-propionic acid] displayed a melting point of 170 to 172 °C.

Take `CC(C)(C)OC(=O)NC(CSCc1ccc(-c2nc(-c3ccccc3)cc(-c3ccccc3)n2)cc1)C(=O)O` (stereo not drawn) [Example 93, 2-tert-Butoxy carbonylamino-3-[4-(4,6-diphenylpyrimidin-2-yl)-benzylsulfanyl]propionic acid]: the melting point was 250 °C (dec.).

In turn, `CC(=O)NC(CSCc1ccc(-c2nc(-c3ccccc3)cc(-c3ccccc3)n2)cc1)C(=O)O` (stereo not drawn) [Example 95, 2-Acetylamino-3-[4-(4,6-diphenyl-pyrimidin-2-yl)-benzylsulfanyl]-propionic acid] showed a melting point of 223 to 226 °C.

`CC(C)(C)OC(=O)N[C@@H](CSCc1ccc(-c2ccc(-c3cccc4c3sc3ccccc34)cc2)cc1)C(=O)O` [Example 107, 2-tert-Butoxycarbonylamino-3-(4′-dibenzothiophen-4-yl-biphenyl-4-ylmethyl-sufanyl)-propionic acid]: the melting point lay in the range of 108 to 110 °C.
